Values of other authors, collected in patent US7511157B2, “Hepatitis C inhibitor dipeptide analogs” (Boehringer Ingelheim International GmbH, priority 2004, dated 2009).

Test system: hepatitis C virus
Conditions: two day clinical trial; Gastroenterology (2004) 127(5): 1347-1355

Question: With `COc1ccc2c(O[C@@H]3C[C@H]4C(=O)N[C@]5(C(=O)O)C[C@H]5/C=C\CCCCC[C@H](NC(=O)OC5CCCC5)C(=O)N4C3)cc(-c3csc(NC(C)C)n3)nc2c1` [BILN 2061] as the molecule, how does the “reduction of viral loads in patients” value read?
Answer: effective in rapidly reducing viral loads
